Among the data in paper PMC9900783 (bioRxiv, 2023) are EC50 and IC50 values, retold here.

Read-outs that look alike come from different tables or passages of the source.

What all share (format): biochemical
Assay [1] concerns the target T1, Nape-pld (Mus musculus, UniProt Q8BH82). Put plainly: fluorogenic PED-A1 hydrolysis assay, activation. The settings on record: read-out: EC50 μM^b (95% CI).
Assay [2] deals with NAPE-PLD (Homo sapiens, UniProt Q6IQ20). Put plainly: recombinant human enzyme, PED-A1 fluorogenic assay, activation.
NAPE-PLD, sequence (Q6IQ20 whole entry): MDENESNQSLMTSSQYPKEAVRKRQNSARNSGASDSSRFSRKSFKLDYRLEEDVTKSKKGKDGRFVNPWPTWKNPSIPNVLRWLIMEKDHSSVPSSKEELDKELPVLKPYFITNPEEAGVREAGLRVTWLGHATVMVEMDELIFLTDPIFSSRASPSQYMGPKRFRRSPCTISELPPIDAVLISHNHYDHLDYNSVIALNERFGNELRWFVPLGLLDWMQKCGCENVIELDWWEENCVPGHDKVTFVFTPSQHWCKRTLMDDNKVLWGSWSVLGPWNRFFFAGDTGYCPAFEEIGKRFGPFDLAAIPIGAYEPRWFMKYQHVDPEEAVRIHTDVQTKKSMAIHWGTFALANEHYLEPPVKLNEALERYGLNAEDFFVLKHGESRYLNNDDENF
Assay [3] has as its target T1, Nape-pld. Put plainly: fluorogenic PED-A1 hydrolysis assay, activation. The settings on record: read-out: EC50 μM^b (95% CI). This is another data set of the same source.
Assay [4] concerns the target T2, soluble epoxide hydrolase (sEH) (Homo sapiens, UniProt P34913).
T2 sequence (P34913 1-555): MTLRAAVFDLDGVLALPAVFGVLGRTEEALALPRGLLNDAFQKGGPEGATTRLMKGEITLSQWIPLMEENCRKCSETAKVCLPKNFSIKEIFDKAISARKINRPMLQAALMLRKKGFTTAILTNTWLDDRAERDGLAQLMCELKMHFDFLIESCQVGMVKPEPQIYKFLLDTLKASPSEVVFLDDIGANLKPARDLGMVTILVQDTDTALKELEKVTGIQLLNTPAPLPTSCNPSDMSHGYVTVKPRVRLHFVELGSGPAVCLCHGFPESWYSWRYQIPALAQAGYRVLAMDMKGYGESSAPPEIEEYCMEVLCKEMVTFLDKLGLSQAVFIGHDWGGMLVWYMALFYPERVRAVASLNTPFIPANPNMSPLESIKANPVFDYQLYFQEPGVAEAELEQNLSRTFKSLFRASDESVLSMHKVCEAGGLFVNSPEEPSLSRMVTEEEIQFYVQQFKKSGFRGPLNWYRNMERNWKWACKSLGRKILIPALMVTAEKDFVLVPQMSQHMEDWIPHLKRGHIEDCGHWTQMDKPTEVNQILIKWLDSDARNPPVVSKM
Description: sEH activity assay kit.

Assay [5] deals with T1, Nape-pld. Put plainly: fluorogenic PED-A1 hydrolysis assay, activation. As to conditions: read-out: EC50 μM^b (95% CI). The source holds these as a separate data set.

T1 sequence (Q8BH82 whole entry): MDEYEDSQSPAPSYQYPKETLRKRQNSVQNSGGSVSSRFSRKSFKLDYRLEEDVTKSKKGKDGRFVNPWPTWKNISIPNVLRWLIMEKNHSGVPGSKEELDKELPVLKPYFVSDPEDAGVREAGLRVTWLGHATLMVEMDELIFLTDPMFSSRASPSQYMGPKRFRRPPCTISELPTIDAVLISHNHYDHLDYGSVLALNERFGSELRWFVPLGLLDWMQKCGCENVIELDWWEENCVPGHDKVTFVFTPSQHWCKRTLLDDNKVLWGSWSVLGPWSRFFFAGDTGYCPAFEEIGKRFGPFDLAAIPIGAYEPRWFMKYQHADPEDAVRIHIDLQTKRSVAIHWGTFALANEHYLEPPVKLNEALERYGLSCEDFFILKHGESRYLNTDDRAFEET

With `Cc1ccc2nc(NC(=O)C3CCN(S(=O)(=O)c4ccc(Cl)cc4)CC3)sc2c1` [compound 5, VU539], on Nape-pld [1], the EC50 was 0.74 µM.
Still for that read-out and setting: in the case of `Cc1ccc2nc(NC(=O)C3CCN(S(=O)(=O)c4ccc(F)cc4)CC3)sc2c1` [compound 3, VU486] it was 0.32 µM.
`Cc1ccc(C)c2sc(NC(=O)C3CCN(S(=O)(=O)c4ccc(F)cc4)CC3)nc12` [compound 9, VU533]: the EC50 was found to be 200 nM on NAPE-PLD [2] and 0.3 µM at Nape-pld [3].
Regarding `Cc1cc(C)c2sc(NC(=O)C3CCN(S(=O)(=O)c4ccc(F)cc4)CC3)nc2c1` [compound 8, VU534], in assay [4], the IC50 is 1200 nM. Besides, the EC50 on Nape-pld [5] worked out at 0.3 µM; on NAPE-PLD [2], 930 nM.
